Measured values taken from PMC8448162, “Single- and Multiple-Ascending-Dose Study of the Safety, Tolerability, and Pharmacokinetics of the Polymyxin Derivative SPR206” (Antimicrobial Agents and Chemotherapy, 2021).
Positions of bridges follow the written chain, without caps; N, C: chain ends. Non-standard residues stand in square brackets, D forms with d. Residues, ends and D or L forms follow the SMILES beside them. *: point of attachment. X1 = NC[C@@H](CC(=O)*)c1cccc(Cl)c1; Dab = NCC[C@H](N)C(=O)O; Dap = NC[C@H](N)C(=O)O

Tests used:
clinical = settings: human, in vivo; for CL renal: CLR (renal clearance)
Protocol: Maximum plasma concentration (Cmax), area under the concentration-time curve from time zero to last measurable time point (AUC0–t), area under the concentration-time curve from time zero to infinity (AUC0–inf), area under the concentration-time curve from time zero to tau (AUC0–tau), time to maximum concentration (Tmax), terminal elimination rate constant (kel), terminal half-life (t1/2), terminal clearance (CL), and volume of distribution (Vz) were determined. In addition, area under the concentration-time curve from 0 to 24 h after the start of infusion (AUC0–24) was determined for the SAD phase, and area under the concentration-time curve from time zero to 8 h from start of infusion (AUC0–8) on day 1 and 0 to 48 h (AUC0–48) following the last dose on day 14 as well as predose trough concentrations were determined for the MAD phase. Urine parameters included cumulative amount of drug excreted in successive urine intervals (Ae), renal clearance (CLR), fraction of cumulative fraction of dose recovered in urine as unchanged drug (Fe), and percentage fraction of cumulative fraction of dose recovered in urine as unchanged drug (Fe%). PK parameters were determined by noncompartmental analysis using Phoenix WinNonlin 8.1.
For the SAD phase, blood samples were obtained predose and at 30, 60, 75, 90, 105, 120, and 150 min and at 3, 5, 8, 12, and 24 h following the start of infusion. Urine was collected for PK assessment predose and over the intervals of 0 to 4 h, 4 to 8 h, 8 to 12 h, and 12 to 24 h after the start of infusion.
In the MAD phase, plasma samples for PK analysis were collected (i) on day 1—pre-dose and at 30, 60, 75, 90, 105, 120, and 150 min and at 3, 5, and 8 h following start of the first infusion; (ii) prior to the morning dose (within 10 min) on days 2, 3, 5, 7, 9, 11, and 13; and (iii) predose and 30, 75, 90, 105, 120, and 150 min and 3, 5, 8, and 12 h (day 14), 24, 36 (day 15), and 48 h (day 16) following start of the last infusion. Urine was collected for PK assessment on day 1 predose, over the intervals 0 to 4 h and 4 to 8 h after start of first infusion, and on days 14 and 15 over the intervals 0 to 4 h, 4 to 8 h, 8 to 12 h, and 12 to 24 h after start of day 14 infusion. Total 24-h urine for calculating CrCl was collected from the morning of day −1 to predose on day 1 and on days 15 and 16 over the interval from 24 to 48 h after the start of the day 14 infusion. Urine creatinine concentrations were measured using 24-h collections prior to the first dose on day 1 and over the 24 to 48 h following start of infusion of the last dose (day 14). Plasma and urine samples for SPR206 levels were analyzed using a validated liquid chromatography-tandem mass spectrometry (LC-MS/MS) method. The assay range for SPR206 was 50 to 5,000 ng/ml in plasma and 100 to 50,000 ng/ml in urine. In plasma, assay precision was 1.3 to 7.7%, accuracy was 1.2 to 9.5%, stability was 194 h at 4°C, and reproducibility was 98.4%. In urine, assay precision was 1.7 to 7.5%, accuracy was −4.8 to 7.3%, stability was 147 h at 4°C, and reproducibility was 97.8%.

healthy subjects = assay: Safety and tolerability (adverse events, laboratory tests, ECG), first-in-human SAD/MAD study, 1-h i.v. infusion; settings: in vivo
[1] = human; cited from earlier work
[2] = in vivo; cited from earlier work
kidney cell = settings: cited from earlier work

CC(C)C[C@@H]1NC(=O)[C@@H](Cc2ccccc2)NC(=O)[C@H](CCN)NC(=O)[C@@H](NC(=O)[C@H](CN)NC(=O)[C@@H](NC(=O)C[C@H](CN)c2cccc(Cl)c2)[C@@H](C)O)CCNC(=O)[C@H]([C@@H](C)O)NC(=O)[C@H](CCN)NC(=O)[C@H](CCN)NC1=O [SPR206] (X1-T[Dap][Dab][Dab][dF]L[Dab][Dab]T; lactam 3-C (inferred))
CL renal (clinical; 10 mg): 0.567 mL/min
CL renal (clinical; 25 mg): 4 mL/min
CL renal (clinical; 50 mg): 13.7 mL/min
CL renal (clinical; 100 mg): 25.8 mL/min
CLR (renal clearance) (clinical; 150 mg): 1.55 ± 0.17 L/h
CL renal (clinical; 150 mg): 35.5 mL/min
CL renal (clinical; 200 mg): 29.5 mL/min
CL renal (clinical; 300 mg): 35.5 mL/min
CL renal (clinical; 400 mg): 32.8 mL/min
Fe (%) (clinical; iv, 25 mg): 5.32 ± 4.38%
Fe (fraction of dose recovered in urine as unchanged drug) (clinical; iv, 25 mg): 0.05 ± 0.04
Fe (fraction of dose recovered in urine as unchanged drug) (clinical; iv, 50 mg): 0.18 ± 0.02
Fe (fraction of dose recovered in urine as unchanged drug) (clinical; iv, 100 mg): 0.27 ± 0.05
dose excreted (clinical; iv, 200 mg, Fe (%)): 35.7 ± 3.85%
dose excreted (clinical; iv, 200 mg, Fe (fraction of dose recovered in urine as unchanged drug)): 36 ± 4%
dose excreted (clinical; iv, 300 mg, Fe (fraction of dose recovered in urine as unchanged drug)): 49 ± 8%
dose excreted (clinical; iv, 400 mg, Fe (%)): 53.4 ± 6.21%
dose excreted (clinical; iv, 400 mg, Fe (fraction of dose recovered in urine as unchanged drug)): 53 ± 6%
subjects with oral hypoesthesia (healthy subjects): 6 subjects
subjects with oral paresthesia (healthy subjects): 5 subjects
protein binding [1]: < 21%
accumulation after repeat dosing [2]: no apparent accumulation
kidney cell cytotoxicity compared with PMB (kidney cell): lower kidney cell cytotoxicity
